# Read-outs that look alike come from different tables or passages of the source.
# Legend:
# AaDOP2 [1] = biological target: T1, AaDOP2 (Aedes aegypti, UniProt H6D5H2); assay: LOPAC1280 antagonist screen in HEK-CRELuc-Aadop2 cells; format: cell-based; details: 10 μM compound, 300 nM dopamine, quadruplicate
# [2] = biological target: T2, human D1 dopamine receptor (hD1) (Homo sapiens, UniProt P21728); assay: cAMP accumulation secondary assay, hD1-expressing cells; format: cell-based, H. sapiens
# T2 construct: expressed in transfected cells
# Ae. aegypti larvae = assay: whole plant or invertebrate; format: in vivo; details: Aedes aegypti; 400 μM, L4 larvae, 24 hours post-treatment; read-out: average larval mortality
# Experimental: Single dose-point and dose response in vivo mosquito bioassays were used to assess the toxicity of selected AaDop2 receptor antagonists identified in the chemical screen. Larvae of Ae. aegypti (Liverpool strain) were reared under standard laboratory conditions on a 12 hr day/night cycle at 75% RH and 28° C., and bioassays were conducted at room temperature (22-24° C.). Larvae were transferred from standard rearing trays into six-well tissue culture plates (Corning, Inc. Corning, N.Y.) using a small plastic pipette. Ten L4-stage larvae were included per well, each containing five ml of de-ionized water and an assigned drug concentration. Controls were conducted similarly but lacked a drug treatment. Bioassays employed a double-blind experimental design, and larval mortality was scored 24 hr following administration of drugs. Single dose-point assays were conducted using 400 μM drug and included three biological replicates each consisting of 100 larvae.
# AaDOP2 [3] = biological target: T1, AaDOP2; assay: HTRF cAMP accumulation concentration response assay (Cisbio Dynamic 2); format: cell-based
# Ae. aegypti L3 larvae [4] = assay: Ae. aegypti L3 concentration response and time course assays; format: in vivo, Aedes aegypti; details: Aedes aegypti
# Experimental: Briefly, chemistries were diluted to appropriate concentration in water and added to the wells of 24-well plates containing 5 L3 stage Ae. aegypti larvae to achieve a final concentration of 400, 200, 100, 50 and 25 μM in 1 ml sterile RO water. Chemistries were tested in quadruplicate at each concentration. […] Results reported here represent a minimum of three independent CRC experiments (i.e., n=3).
# [5] = system: adult male Blatella germanica; assay: Cockroach contact assay (topical application); format: in vivo; details: 200 mM compound
# Outline: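 Adult male German cockroaches (Blatella germanica) were dosed by topical application of compound to the ventral thorax, giving an effective dose of 50-80 μg depending on compound. Each test was a single-point dose run in triplicate in 24-well plates. Insects were incubated at 22° C. and scored for mortality, with commercial insecticides included as positive controls.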
# [6] = system: adult Reticulitermes flavipes; assay: Termite immersion assay; format: in vivo; details: Reticulitermes flavipes, immersion, adult termite; for mortality at 100 µM: 100 µM compound (Fipronil 500 μM); for mortality at 100000 µM: 100 mM compound (Fipronil 500 μM)
# [7] = system: adult male Blatella germanica; assay: Cockroach assay of Table 16 (title contact assay, text feeding assay); format: in vivo; details: 200 mM compound
# Isdop2 [8] = biological target: T3, Isdop2 (Ixodes scapularis, UniProt A0ACM8DGL0); assay: cell-based; details: read-out: % Inhibition (of response to dopamine), Isdop2 screen
# Isdop1 [9] = biological target: T4, Isdop1 (Ixodes scapularis, UniProt A0ACM8FJJ0); assay: cAMP accumulation confirmation assay, cells stably expressing Isdop1; format: cell-based
# Isdop2 [10] = biological target: T3, Isdop2; assay: cAMP accumulation confirmation assay, cells stably expressing Isdop2; format: cell-based
# AaDOP2 [11] = biological target: T1, AaDOP2
# Ae. aegypti L3 larvae [12] = assay: whole plant or invertebrate; details: Aedes aegypti
# AaDOP1 [13] = biological target: T5, AaDOP1 (Aedes aegypti, UniProt H6D5H1); assay: CRELuc reporter dose-response in HEK293 cells stably expressing AaDOP1; format: cell-based; details: HEK293 cells stably expressing CRELuc reporter and AaDOP1
# Isdop1 [14] = biological target: T4, Isdop1; assay: CRE-Luc reporter assay, HEK cells stably expressing Isdop1; format: cell-based
# Isdop2 [15] = biological target: T3, Isdop2; assay: CRE-Luc reporter assay, HEK cells stably expressing Isdop2; format: cell-based
# AaDOP1 [16] = biological target: T5, AaDOP1; details: single dose 10 μM, transient expression, n=3
# AaDOP2 [17] = biological target: T1, AaDOP2; details: single dose 10 μM, transient expression, n=3
# Ae. aegypti L3 larvae [18] = details: 400 μM, three independent experiments
# AaDOP2 [19] = biological target: T1, AaDOP2; assay: cell-based
# [20] = 48 h, read-out: Toxicity to Aedes aegypti larvae (mortality) 48 hours, 400 μM, L3 larvae, three independent experiments
# [21] = 72 h, read-out: Toxicity to Aedes aegypti larvae (mortality) 72 hours, 400 μM, L3 larvae, three independent experiments
# T1 sequence (H6D5H2 entry or part of it): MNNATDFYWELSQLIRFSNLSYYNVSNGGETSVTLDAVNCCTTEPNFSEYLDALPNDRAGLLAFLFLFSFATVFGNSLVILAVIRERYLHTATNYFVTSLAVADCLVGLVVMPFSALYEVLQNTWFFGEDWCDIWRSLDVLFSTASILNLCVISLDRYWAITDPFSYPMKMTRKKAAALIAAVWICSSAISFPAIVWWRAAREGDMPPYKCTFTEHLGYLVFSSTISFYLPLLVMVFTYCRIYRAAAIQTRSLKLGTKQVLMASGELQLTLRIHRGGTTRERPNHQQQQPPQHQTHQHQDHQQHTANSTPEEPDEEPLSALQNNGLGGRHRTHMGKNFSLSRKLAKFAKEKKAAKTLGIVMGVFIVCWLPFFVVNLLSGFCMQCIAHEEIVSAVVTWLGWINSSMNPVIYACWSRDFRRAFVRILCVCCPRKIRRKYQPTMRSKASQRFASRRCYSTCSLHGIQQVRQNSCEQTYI
# T3 sequence (A0ACM8DGL0 entry or part of it): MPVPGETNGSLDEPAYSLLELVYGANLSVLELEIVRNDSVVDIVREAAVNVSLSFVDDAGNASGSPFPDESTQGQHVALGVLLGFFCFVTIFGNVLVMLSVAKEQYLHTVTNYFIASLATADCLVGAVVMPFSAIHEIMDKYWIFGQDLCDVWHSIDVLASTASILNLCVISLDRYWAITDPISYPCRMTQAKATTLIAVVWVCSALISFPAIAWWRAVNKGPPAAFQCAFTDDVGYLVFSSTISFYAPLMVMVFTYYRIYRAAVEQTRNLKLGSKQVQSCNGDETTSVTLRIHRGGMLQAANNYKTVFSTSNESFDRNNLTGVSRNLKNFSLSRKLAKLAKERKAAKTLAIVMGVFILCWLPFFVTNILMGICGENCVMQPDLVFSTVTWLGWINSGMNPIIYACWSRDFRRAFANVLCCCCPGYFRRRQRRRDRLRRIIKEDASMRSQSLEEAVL
# T5 sequence (H6D5H1 entry or part of it): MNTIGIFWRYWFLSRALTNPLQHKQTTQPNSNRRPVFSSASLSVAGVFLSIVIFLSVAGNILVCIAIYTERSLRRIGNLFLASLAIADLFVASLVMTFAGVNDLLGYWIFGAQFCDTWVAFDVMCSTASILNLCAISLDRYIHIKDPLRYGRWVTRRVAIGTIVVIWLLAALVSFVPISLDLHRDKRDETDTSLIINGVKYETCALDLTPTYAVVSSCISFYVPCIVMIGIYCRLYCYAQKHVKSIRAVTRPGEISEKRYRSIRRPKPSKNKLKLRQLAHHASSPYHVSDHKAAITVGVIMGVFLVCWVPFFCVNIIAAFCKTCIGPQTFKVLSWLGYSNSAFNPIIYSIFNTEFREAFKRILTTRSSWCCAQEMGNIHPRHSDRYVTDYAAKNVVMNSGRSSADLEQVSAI
# T2 sequence (P21728 whole entry): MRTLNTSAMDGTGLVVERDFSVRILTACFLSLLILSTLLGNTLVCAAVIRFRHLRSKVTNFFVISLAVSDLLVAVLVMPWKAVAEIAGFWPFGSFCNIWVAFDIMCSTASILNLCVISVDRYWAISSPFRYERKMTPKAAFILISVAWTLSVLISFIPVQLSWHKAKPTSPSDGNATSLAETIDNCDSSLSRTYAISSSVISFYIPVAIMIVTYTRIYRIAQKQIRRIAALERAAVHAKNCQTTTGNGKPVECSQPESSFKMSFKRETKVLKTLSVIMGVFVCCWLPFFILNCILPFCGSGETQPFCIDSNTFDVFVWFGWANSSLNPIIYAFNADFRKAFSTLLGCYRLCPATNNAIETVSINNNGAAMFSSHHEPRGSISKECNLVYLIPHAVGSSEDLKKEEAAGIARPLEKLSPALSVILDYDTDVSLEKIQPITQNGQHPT
structure (smiles),measurement,setting,value
"CN(C)CCC=C1c2ccccc2CCc2ccccc21 [Amitriptyline, (3-(10,11-dihydro-5H-dibenzo[a,d][7]annulen-5-ylidene)-N,N-dimethylpropan-1-amine)]",% of the SCH23390 effect,AaDOP2 [1],90%
same,IC50,"[2]; read-out: IC50 value (at 100 nM dopamine for hD1), 100 nM dopamine, direct cAMP accumulation",470 ± 49 nM
same,mortality at 400 µM,Ae. aegypti larvae,93%
same,IC50,"AaDOP2 [3]; AaDOP2 expressing cells in the presence of dopamine, No Inhibition = <10% inhibition at 3 μM test compound, read-out: IC50 ± S.E.M. (nM), HTRF cAMP assay",6.5 ± 0.92 nM
same,IC50,"AaDOP2 [3]; Avg IC50 (μM), in vitro Concentration Response Curve assay, n = 2, relative to control antagonist Amitriptyline",7 nM
same,LC50,Ae. aegypti L3 larvae [4],78000 nM
same,% Mortality 24 hrs,[5],5%
same,% Mortality 48 hrs,[5],20%
same,% Mortality 72 hrs,[5],25%
same,% Mortality 120 hrs,[5],30%
same,% Mortality 240 hrs,[5],35%
same,mortality at 100 µM,"[6]; 24 h, read-out: % Mortality 24 hrs",40%
same,mortality at 100000 µM,"[6]; 48 h, read-out: % Mortality 48 hrs",40%
same,mortality at 100000 µM,"[6]; 72 h, read-out: % Mortality 72 hrs",60%
same,mortality at 100000 µM,"[6]; 120 h, read-out: % Mortality 120 hrs",70%
same,mortality at 100 µM,"[6]; 240 h, read-out: % Mortality 240 hrs",70%
same,% Mortality 24 hrs,[7],3%
same,% Mortality 48 hrs,[7],20%
same,% Mortality 72 hrs,[7],23%
same,% Mortality 120 hrs,[7],30%
same,inhibition at 10 µM,Isdop2 [8],87%
same,IC50,Isdop1 [9],77000 nM
same,IC50,Isdop2 [10],2900 nM
same,Relative fold selectivity for AaDOP2 vs. hD1,AaDOP2 [11]; ratio of IC50 values hD1/AaDOP2,36 fold
same,IC50,"AaDOP2 [11]; read-out: Affinity (Aedesdop2), values equal the Table 3 IC50 values",14 nM
same,mortality at 400 µM,"Ae. aegypti L3 larvae [12]; 24 h, read-out: Toxicity to Aedes aegypti larvae (mortality) 24 hours, 400 μM, L3 larvae, three independent experiments",63%
same,mortality at 400 µM,Ae. aegypti L3 larvae [12]; [20],87%
same,mortality at 400 µM,Ae. aegypti L3 larvae [12]; [21],93%
NCCc1ccc(O)c(O)c1 [Dopamine],EC50,AaDOP1 [13],3.1 ± 1.1 nM
same,EC50,Isdop1 [14],~31 nM
same,EC50,Isdop2 [15],~145 nM
same,"increase of intracellular cAMP, AaDOP1",AaDOP1 [16],2.7±0.6 fold
same,"increase of intracellular cAMP, AaDOP2",AaDOP2 [17],48±14 fold
"CSc1ccc2c(c1)C(N1CCN(C)CC1)Cc1ccccc1S2 (centres unmarked) [Methiothepin, (1-methyl-4-(8-(methylthio)-10,11-dihydrodibenzo-[b,f]thiepin-10-yl)piperazines)]",% of the SCH23390 effect,AaDOP2 [1],99%
same,IC50,[2],80 ± 11 nM
same,inhibition at 10 µM,Isdop2 [8],100%
same,IC50,Isdop1 [9],950 nM
same,IC50,Isdop2 [10],85 nM
same,Relative fold selectivity for AaDOP2 vs. hD1,AaDOP2 [11],5.7 fold
same,Toxicity to Aedes aegypti larvae (mortality) 24 hours,Ae. aegypti L3 larvae [18],100%
same,IC50,AaDOP2 [19],14 ± 5.1 nM
same,mortality at 400 µM,"Ae. aegypti L3 larvae [12]; 0.5 h, read-out: percent mortality 0.5 hr, 400 uM, L3 larvae, value for this scoring time",10%
same,mortality at 400 µM,"Ae. aegypti L3 larvae [12]; 1 h, read-out: percent mortality 1 hr, 400 uM, L3 larvae, per scoring time",0%
same,mortality at 400 µM,"Ae. aegypti L3 larvae [12]; 2 h, read-out: percent mortality 2 hr, 400 uM, L3 larvae, per scoring time",20%
same,mortality at 400 µM,"Ae. aegypti L3 larvae [12]; 3 h, read-out: mortality within three hours, 400 μM, L3 larvae",> 70%
same,mortality at 400 µM,"Ae. aegypti L3 larvae [12]; 3 h, read-out: percent mortality 3 hr, 400 uM, L3 larvae, per scoring time",0%
same,mortality at 400 µM,"Ae. aegypti L3 larvae [12]; 4 h, read-out: percent mortality 4 hr, 400 uM, L3 larvae, per scoring time",0%
same,mortality at 400 µM,"Ae. aegypti L3 larvae [12]; 24 h, read-out: percent mortality 24 hr, 400 uM, L3 larvae, per scoring time",0%
same,mortality at 400 µM,Ae. aegypti L3 larvae [12]; [20],100%
same,mortality at 400 µM,"Ae. aegypti L3 larvae [12]; 48 h, read-out: percent mortality 48 hr, 400 uM, L3 larvae, per scoring time",0%
same,mortality at 400 µM,"Ae. aegypti L3 larvae [12]; 72 h, read-out: Cumulative % Mortality (72 hrs), 400 uM, L3 larvae",100%
same,mortality at 400 µM,Ae. aegypti L3 larvae [12]; [21],100%
same,mortality at 400 µM,"Ae. aegypti L3 larvae [12]; 72 h, read-out: percent mortality 72 hr, 400 uM, L3 larvae, per scoring time",0%
